Legend:
VCAM-1 = VCAM-1 gene expression inhibition; format: cell-based; details: compound A at low micromolar concentrations, probucol at very high concentrations
stented arteries = test: Clinical trial: angiographic restenosis by quantitative coronary angiography (QCA); format: in vivo, human; details: for rate of angiographic restenosis in stented arteries: QCA; for restenosis rate reduction: relative to placebo (37.5 percent); for restenosis after PCI: treatment 2 weeks before and 4 weeks after PCI
Experimental: (§1) The primary endpoint of the trial was the size of the lumenal area (coronary artery opening), as measured by intravascular ultrasound (IVUS), six months after angioplasty. […] Angiographic restenosis was also assessed using a standard definition of restenosis as measured by quantitative coronary angiography (QCA). […] An IVUS analysis of reference vessels (blood vessels of coronary arteries that were not targets of angioplasty procedures) was also carried out. The data indicated lumen volumes increased for patients who received either of the top two doses of Compound A. In contrast, patients on placebo had decreased lumen volumes, consistent with the expected progression of atherosclerosis.
(§2) Treatment of the above was given 2 weeks prior to and 4 weeks after PCI. PCI was performed on greater than or equal to 1 native artery with greater than or equal to 1 de novo lesion of greater than or equal to 50%. All PCI procedures (with or without stent placement) and post-PCI management were performed according to recognized current clinical practice. 0.3 mg of nitroglycerin(Ntg) intracoronary (IC) were administered at every angiogram. Quantitative Coronary Angiography (QCA) measurements were taken prior to-PCI, 10 minutes post-PCI, and final follow-up (approximately 6 months).

[1] = test system: coronary artery opening at the site of angioplasty; test: Clinical trial: minimal luminal area by intravascular ultrasound (IVUS) six months after angioplasty; format: in vivo, human; details: for mean minimal luminal area: IVUS six months after angioplasty
Experimental: as §1
A study was conducted to determine whether Compound A reduces restenosis as assessed by intravascular ultrasound (IVUS) when administered for 2 weeks before and 4 weeks after percutaneous coronary intervention (PCI) with or without stent placement. A multi-center, double-blind placebo-controlled randomized trail with 5 treatment groups:
as §2
(§3) IVUS examinations were conducted at 30 Mhz using 3.5 French CVIS catheters. All IVUS examinations were preceded by IC Ntg 0.3 mg. Results of these examinations are found in FIGS. 1-6.

QTc interval = test: Clinical trial: QTc interval; format: in vivo, human
MCP-1 = MCP-1 gene expression inhibition; format: cell-based; details: compound A at low micromolar concentrations, probucol at very high concentrations
[2] = Antioxidant activity (preclinical comparison)
[3] = Anti-inflammatory activity (preclinical comparison)
[4] = test system: reference vessels (coronary arteries that were not targets of angioplasty); test: Clinical trial: IVUS analysis of lumen volume of reference vessels (non-PCI site); format: in vivo, human; details: for lumen volume change of reference vessels: IVUS, non-PCI site
Experimental: as §1, §3

| SMILES | inhibition of VCAM-1 gene expression (VCAM-1) | rate of angiographic restenosis in stented arteries (stented arteries; combined Compound A arms (70, 140, 280 mg once a day)) [%] | restenosis rate reduction (stented arteries; combined Compound A arms) [%] | restenosis after PCI (stented arteries) | mean minimal luminal area ([1]; 70 mg once a day for six weeks) [mm2] | mean minimal luminal area ([1]; 140 mg once a day for six weeks) [mm2] | mean minimal luminal area ([1]; 280 mg once a day for six weeks, p<0.05 vs. placebo) [mm2] | luminal area at the site of angioplasty ([1]; at two weeks, p<0.05) | prolongation of the QTc interval (QTc interval) | inhibition of MCP-1 gene expression (MCP-1) | antioxidant properties [2] | activity as an anti-inflammatory agent [3] | lumen volume change of reference vessels ([4]; 70 mg once a day) [mm3] | lumen volume change of reference vessels ([4]; 140 mg once a day) | lumen volume change of reference vessels ([4]; 280 mg once a day) | lumen dimensions of the reference segments ([4]; in contrast to probucol) | restenosis rate reduction (stented arteries; probucol 500 mg twice a day) [%] | rate of angiographic restenosis in stented arteries (stented arteries; probucol 500 mg twice a day) [%] | mean minimal luminal area ([1]; probucol 500 mg twice a day for six weeks) [mm2] | lumen volume change of reference vessels ([4]; probucol 500 mg twice a day) [mm3] |
| --- | --- | --- | --- | --- | --- | --- | --- | --- | --- | --- | --- | --- | --- | --- | --- | --- | --- | --- | --- | --- |
| CC(C)(Sc1cc(C(C)(C)C)c(O)c(C(C)(C)C)c1)Sc1cc(C(C)(C)C)c(OC(=O)CCC(=O)O)c(C(C)(C)C)c1 [Compound A, Butanedioic acid, mono [4-[[1-[[3,5-bis(1,1-dimethylethyl)-4-hydroxyphenyl]thio]-1-methylethyl]thio]2,6-bis(1,1-dimethylethyl)phenyl]ester] | very active inhibitor | 26.0 | 31 | reduce restenosis | 2.75 | 3.17 | 3.36 | dose response improvement | without causing prolongation | very active inhibitor | equipotent to probucol | consistently very effective | −2.4 | +3.5 mm3 | +1.8 mm3 | surprising improvement | – | – | – | – |
| CC(C)(Sc1cc(C(C)(C)C)c(O)c(C(C)(C)C)c1)Sc1cc(C(C)(C)C)c(O)c(C(C)(C)C)c1 [Probucol, probucol, reference compound] | inactive | – | – | reduce restenosis | – | – | – | – | – | inactive | – | – | – | – | – | – | 32 | 25.5 | 3.69 | −0.2 |
